Laboratory results reported in US8969373B2, “HCV protease inhibitors” (Shanghai Tangrun Pharmaceuticals Co., Ltd., priority 2011, dated 2015).

How the values were obtained:
[1] = system: HCV (J399EM virus) in Huh7.5.1 cells; test: Inhibition of HCV replication in HCV infected human hepatocellular carcinoma cells (Huh7.5.1), HCV-EGFP fluorescence; assay type: cell-based; conditions: Hepatitis C virus, Huh-7.5.1, 72 h, read-out: HCV infected human hepatocellular carcinoma cells in vitro EC50(nM)
Description: In Vitro Inhibitory Activity of Compounds in HCV Replication in HCV Infected Human Hepatocellular Carcinoma Cells (Huh7.5.1)
The preparation of Huh7.5.1cells: Huh 7.5.1 cells were seeded at a 96-well plate with 37 and 5% CO2 for 24 hours incubation.
Virus infection: Using the J399EM virus supernatants (moi≈0.1) to infect Huh7.5.1cells. At the same time, the no virus infected cell will be set up as the control. After 8 hours virus infection, the virus will be washed out with PBS.
Drug treatment: The different doses of samples (i.e. the compound Ik, wherein k=1, 2, 3, . . . 42) were added in J399EM infected Huh7.5.1 cells, the each dose for duplicate. At the same time the no sample added in wells will be set up as the control. The test dose of sample is starting from 25 nM or 400 nM, with quarter dilution, 5 doses of sample will be added in the test wells, respectively, then continued for 72 hours incubation.
HCV-EGFP fluorescence detection: After samples treatment for 72 hours, the autofluorescence of HCV-EGFP were measured by the luminometer with excitation of 488 nm, and emission of 516 nm. The related fluorescence unit (RFU) of samples will be read out and used for calculating the inhibitory rates of compounds in HCV replication.

[2] = system: HCV replicon (pSGR-399LM) in Huh7 cells; test: Inhibitory activity in the HCV replicon system (Renilla luciferase); assay type: cell-based; conditions: Hepatitis C virus, Huh-7, pSGR-399LM replicon Huh7 cells, 72 hr
Description: The Inhibitory Activity of Compounds in the HCV Replicon System
HCV replicon cell-line: The Huh7 cells were transfected with pSGR-399LM replicon DNA and cultured in the DMEM containing 10% FBS and 0.5 mg/mL G418. The cells were split at 1:3 to 1:5 every 3-4 days. The transfected cells were seeded in 96-well plates and cultured at 37° C., 5% CO2 for 24 hr.
Treatment with samples: To the HCV replicon Huh7 cells-line were added different concentration of the samples (i.e. compound Ik, wherein k=1, 2, 3 . . . 42), the each concentration for duplicate, and set no sample control wells. The concentration started at 400 nM, with quarter dilution to form five different concentrations of samples, that is 400 nM, 100 nM, 25 nM, 6.25 nM and 1.56 nM. The samples were added separately, and continued to incubated for 72 hr.
Fluorescence detection: After 72 hr treatment with sample, the cells were lysed and added with Renilla luciferase substrate to detect luminescent signal. The relative luminescent unit (RLU) in the luminometer was read out and used to calculate the inhibition rate of HCV.

SMILES | EC50 [1] [nM] | EC50 [2] [nM]
C=C[C@@H]1C[C@]1(NC(=O)[C@@H]1C[C@@H](Oc2cc(-c3ccccc3)nc3c2sc2cccc(Cl)c23)CN1C(=O)[C@@H](NC(=O)OC(C)(C)C)C(C)(C)C)C(=O)NS(=O)(=O)C1CC1 [Compound 1] | 100 to 1000 | 100 to 1000
C=C[C@@H]1C[C@]1(NC(=O)[C@@H]1C[C@@H](Oc2cc(-c3ccccc3)nc3c2oc2ccc(OC)cc23)CN1C(=O)[C@@H](NC(=O)OC(C)(C)C)C(C)(C)C)C(=O)NS(=O)(=O)C1CC1 [Compound 3, tert-butyl(S)-1-((2S,4R)-2-((1R,2S)-1-(cyclopropylsulfonylcarbamoyl)-2-vinylcyclopropylcarbamoyl)-4-(8-methoxy-2-phenylbenzofuro [3,2-b]pyridin-4-yloxy)pyrrolidin-1-yl)-3,3-dimethyl-1-oxobutan-2-yl carbamate] | 100 to 1000 | < 100
C=C[C@@H]1C[C@]1(NC(=O)[C@@H]1C[C@@H](Oc2cc(-c3ccccc3)nc3c2oc2ccc(Cl)cc23)CN1C(=O)[C@@H](NC(=O)OC(C)(C)C)C(C)(C)C)C(=O)NS(=O)(=O)C1CC1 [Compound 4, tert-butyl(S)-1-((2S,4R)-4-(8-chloro-2-phenylbenzofuro[3,2-b]pyridin-4-yloxy)-2-((1R,2S)-1-(cyclopropylsulfonylcarbamoyl)-2-vinylcyclopropylcarbamoyl)pyrrolidin-1-yl)-3,3-dimethyl-1-oxobutan-2-yl carbamate] | 100 to 1000 | < 100
CC(C)(C)OC(=O)N[C@H]1CCCCC/C=C\[C@@H]2C[C@@]2(C(=O)NS(=O)(=O)C2CC2)NC(=O)[C@@H]2C[C@@H](Oc3nc4c5ccccc5oc4c4ccccc34)CN2C1=O [Compound 6] | < 100 | < 100
C=C[C@@H]1C[C@]1(NC(=O)[C@@H]1C[C@@H](Oc2cc(-c3ccccc3)nc3c2sc2cc(F)ccc23)CN1C(=O)[C@@H](NC(=O)OC(C)(C)C)C(C)(C)C)C(=O)NS(=O)(=O)C1CC1 [Compound 7] | < 100 | < 100
C=C[C@@H]1C[C@]1(NC(=O)[C@@H]1C[C@@H](Oc2cc(-c3ccccc3)nc3c2oc2ccc(Br)cc23)CN1C(=O)[C@@H](NC(=O)OC(C)(C)C)C(C)(C)C)C(=O)NS(=O)(=O)C1CC1 [Compound 8] | 100 to 1000 | < 100
C=C[C@@H]1C[C@]1(NC(=O)[C@@H]1C[C@@H](Oc2cc(-c3ccccc3)nc3c2sc2ccccc23)CN1C(=O)[C@@H](NC(=O)OC(C)(C)C)C(C)(C)C)C(=O)NS(=O)(=O)C1CC1 [Compound 9] | 100 to 1000 | < 100
CC(C)(C)OC(=O)N[C@H]1CCCCC/C=C\[C@@H]2C[C@@]2(C(=O)NS(=O)(=O)C2CC2)NC(=O)[C@@H]2C[C@@H](Oc3nc4c5ccc(F)cc5sc4c4ccccc34)CN2C1=O [Compound 10] | < 100 | < 100
C=C[C@@H]1C[C@]1(NC(=O)[C@@H]1C[C@@H](Oc2nc3c4cc(Cl)ccc4oc3c3ccccc23)CN1C(=O)[C@@H](NC(=O)OC(C)(C)C)C(C)(C)C)C(=O)NS(=O)(=O)C1CC1 [Compound 11] | 100 to 1000 | < 100
C=C[C@@H]1C[C@]1(NC(=O)[C@@H]1C[C@@H](Oc2nc3c4ccc(F)cc4sc3c3ccccc23)CN1C(=O)[C@@H](NC(=O)OC(C)(C)C)C(C)(C)C)C(=O)NS(=O)(=O)C1CC1 [Compound 12] | 100 to 1000 | < 100
C=C[C@@H]1C[C@]1(NC(=O)[C@@H]1C[C@@H](Oc2nc3c4cc(Cl)ccc4oc3c3ccccc23)CN1C(=O)[C@@H](CC(=O)OC(C)(C)C)C(C)(C)C)C(=O)NS(=O)(=O)C1CC1 [Compound 13] | 100 to 1000 | 100 to 1000
C=C[C@@H]1C[C@]1(NC(=O)[C@@H]1C[C@@H](Oc2nc3c4cc(Cl)ccc4oc3c3ccccc23)CN1C(=O)[C@@H](CC(=O)N1CCCCC1)C(C)(C)C)C(=O)NS(=O)(=O)C1CC1 [Compound 14, (2S,4R)-1-((S)-2-tert-butyl-4-oxo-4-(piperidin-1-yl)butanoyl)-4-(8-chlorobenzofuro[3,2-c]isoquinolin-5-yloxy)-N-((1R,2S)-1-(cyclopropylsulfonylcarbamoyl)-2-vinylcyclopropyl)pyrrolidine-2-carboxamide] | 100 to 1000 | < 100
C=C[C@@H]1C[C@]1(NC(=O)[C@@H]1C[C@@H](Oc2nc3c4cc(OC)ccc4oc3c3ccccc23)CN1C(=O)[C@@H](NC(=O)OC(C)(C)C)C(C)(C)C)C(=O)NS(=O)(=O)C1CC1 [Compound 15] | 100 to 1000 | 100 to 1000
CC(C)(C)OC(=O)N[C@H]1CCCCC/C=C\[C@@H]2C[C@@]2(C(=O)NS(=O)(=O)C2CC2)NC(=O)[C@@H]2C[C@@H](Oc3nc4c5ccccc5oc4c4ccc(Br)cc34)CN2C1=O [Compound 16] | < 100 | < 100
CC(C)(C)OC(=O)N[C@H]1CCCCC/C=C\[C@@H]2C[C@@]2(C(=O)NS(=O)(=O)C2CC2)NC(=O)[C@@H]2C[C@@H](Oc3nc4c5ccccc5oc4c4ccc(Cl)cc34)CN2C1=O [Compound 17] | < 100 | < 100
COc1ccc2oc3c4ccc(Cl)cc4c(O[C@@H]4C[C@H]5C(=O)N[C@]6(C(=O)NS(=O)(=O)C7CC7)C[C@H]6/C=C\CCCCC[C@H](NC(=O)OC(C)(C)C)C(=O)N5C4)nc3c2c1 [Compound 19] | < 100 | < 100
C=C[C@@H]1C[C@]1(NC(=O)[C@@H]1C[C@@H](Oc2nc3c4ccccc4oc3c3ccc(Cl)cc23)CN1C(=O)[C@@H](NC(=O)OC1CCCC1)C(C)(C)C)C(=O)NS(=O)(=O)C1CC1 [Compound 20] | < 100 | < 100
C=C[C@@H]1C[C@]1(NC(=O)[C@@H]1C[C@@H](Oc2cc(-c3ccccc3)nc3c2oc2ccc(OC)cc23)CN1C(=O)[C@@H](NC(=O)OC1CCCC1)C(C)(C)C)C(=O)NS(=O)(=O)C1CC1 [Compound 21] | 100 to 1000 | < 100
C=C[C@@H]1C[C@]1(NC(=O)[C@@H]1C[C@@H](Oc2cc(-c3ccccc3)nc3c2oc2ccc(OC)c(Cl)c23)CN1C(=O)[C@@H](NC(=O)OC1CCCC1)C(C)(C)C)C(=O)NS(=O)(=O)C1CC1 [Compound 22] | < 100 | < 100
C=C[C@@H]1C[C@]1(NC(=O)[C@@H]1C[C@@H](Oc2cc(-c3ccccc3)nc3c2oc2ccc(OC)c(Cl)c23)CN1C(=O)[C@@H](NC(=O)OC(C)(C)C)C(C)(C)C)C(=O)NS(=O)(=O)C1CC1 [Compound 23] | < 100 | < 100
C=C[C@@H]1C[C@]1(NC(=O)[C@@H]1C[C@@H](Oc2cc(-c3csc(C(C)C)n3)nc3c2oc2ccc(OC)c(Cl)c23)CN1C(=O)[C@@H](NC(=O)OC(C)(C)C)C(C)(C)C)C(=O)NS(=O)(=O)C1CC1 [Compound 24] | < 100 | < 100
C=C[C@@H]1C[C@]1(NC(=O)[C@@H]1C[C@@H](Oc2cc(-c3csc(C(C)(C)O)n3)nc3c2oc2ccc(OC)c(Cl)c23)CN1C(=O)[C@@H](NC(=O)OC(C)(C)C)C(C)(C)C)C(=O)NS(=O)(=O)C1CC1 [Compound 25] | < 100 | < 100
C=C[C@@H]1C[C@]1(NC(=O)[C@@H]1C[C@@H](Oc2cc(-c3csc(C(C)(C)O)n3)nc3c2oc2ccc(OC)c(Br)c23)CN1C(=O)[C@@H](NC(=O)OC(C)(C)C)C(C)(C)C)C(=O)NS(=O)(=O)C1CC1 [Compound 26] | < 100 | < 100
C=C[C@@H]1C[C@]1(NC(=O)[C@@H]1C[C@@H](Oc2cc(-c3ccccc3)nc3c2oc2ccc(OC)c(Br)c23)CN1C(=O)[C@@H](NC(=O)OC(C)(C)C)C(C)(C)C)C(=O)NS(=O)(=O)C1CC1 [Compound 27] | < 100 | < 100
C=C[C@@H]1C[C@]1(NC(=O)[C@@H]1C[C@@H](Oc2cc(-c3ccccc3)nc3c2oc2ccc(OC)c(Br)c23)CN1C(=O)[C@@H](NC(=O)OC1CCCC1)C(C)(C)C)C(=O)NS(=O)(=O)C1CC1 [Compound 28] | < 100 | < 100
C=C[C@@H]1C[C@]1(NC(=O)[C@@H]1C[C@@H](Oc2nc3c4ccccc4oc3c3ccc(Cl)cc23)CN1C(=O)[C@@H](NC(=O)OC(C)(C)C)C(C)(C)C)C(=O)NS(=O)(=O)C1CC1 [Compound 29] | < 100 | < 100
C=C[C@@H]1C[C@]1(NC(=O)[C@@H]1C[C@@H](Oc2nc3c4ccccc4oc3c3ccc(Br)cc23)CN1C(=O)[C@@H](NC(=O)OC(C)(C)C)C(C)(C)C)C(=O)NS(=O)(=O)C1CC1 [Compound 30] | 100 to 1000 | 100 to 1000
C=C[C@@H]1C[C@]1(NC(=O)[C@@H]1C[C@@H](Oc2nc3c4ccccc4oc3c3ccc(OC)cc23)CN1C(=O)[C@@H](NC(=O)OC(C)(C)C)C(C)(C)C)C(=O)NS(=O)(=O)C1CC1 [Compound 31] | 100 to 1000 | 100 to 1000
